Reference: ChEMBL document CHEMBL1909046, “DrugMatrix in vitro pharmacology data”

What was measured:
[1] = molecular target: T1, Neutrophil elastase (Homo sapiens, UniProt P08246); format: tissue-based;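 also: inhibition of neutrophil elastase enzyme activity, measured with a p-nitroanilide-linked peptide substrate; in other assays of this panel Not Active means under 50% inhibition at 10 µM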
T1 sequence (P08246 whole entry): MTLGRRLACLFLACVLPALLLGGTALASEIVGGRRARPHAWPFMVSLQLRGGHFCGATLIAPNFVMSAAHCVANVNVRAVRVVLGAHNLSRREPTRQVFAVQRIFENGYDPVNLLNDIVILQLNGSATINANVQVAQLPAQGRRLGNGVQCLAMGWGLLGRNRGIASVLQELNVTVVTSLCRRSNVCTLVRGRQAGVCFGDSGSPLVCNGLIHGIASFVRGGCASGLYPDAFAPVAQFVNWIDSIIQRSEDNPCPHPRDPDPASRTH

[2] = DRUGMATRIX: Nicotinic Acetylcholine radioligand binding (ligand: [125I] Epibatidine); format: cell membranes, Membrane; conditions: imr-32; Not Active = under 50% inhibition at 10 µM
[3] = molecular target: T2, Adenosine receptor A1 (Homo sapiens, UniProt P30542); format: cell membranes, CHO, Membrane; conditions: cho;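 also: radioligand binding assay at the adenosine A1 receptor, with DPCPX serving as the labelled ligand; in other assays of this panel Not Active means under 50% inhibition at 10 µM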
T2 sequence (P30542 whole entry): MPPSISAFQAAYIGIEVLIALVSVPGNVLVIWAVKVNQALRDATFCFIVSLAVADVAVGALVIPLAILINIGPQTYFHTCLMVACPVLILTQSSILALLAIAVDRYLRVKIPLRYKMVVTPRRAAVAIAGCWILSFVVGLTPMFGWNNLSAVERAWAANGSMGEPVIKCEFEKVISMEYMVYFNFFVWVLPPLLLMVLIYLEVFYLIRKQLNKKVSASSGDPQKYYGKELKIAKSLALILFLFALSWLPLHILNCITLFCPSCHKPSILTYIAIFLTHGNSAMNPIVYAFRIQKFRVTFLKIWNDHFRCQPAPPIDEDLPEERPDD

[4] = DRUGMATRIX: Atrial Natriuretic Factor (ANF) radioligand binding (ligand: [125I] ANF (rat)); format: cell membranes, Cavia porcellus, Dunkin-Hartley, Adrenal gland, Membrane; conditions: Not Active = under 50% inhibition at 10 µM
[5] = molecular target: T3, Interstitial collagenase (Homo sapiens, UniProt P03956); format: tissue-based, Rheumatoid synovial fibroblasts;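 also: MMP-1 enzyme inhibition assay using a peptide substrate; in other assays of this panel Not Active means under 50% inhibition at 10 µM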
T3 sequence (P03956 whole entry): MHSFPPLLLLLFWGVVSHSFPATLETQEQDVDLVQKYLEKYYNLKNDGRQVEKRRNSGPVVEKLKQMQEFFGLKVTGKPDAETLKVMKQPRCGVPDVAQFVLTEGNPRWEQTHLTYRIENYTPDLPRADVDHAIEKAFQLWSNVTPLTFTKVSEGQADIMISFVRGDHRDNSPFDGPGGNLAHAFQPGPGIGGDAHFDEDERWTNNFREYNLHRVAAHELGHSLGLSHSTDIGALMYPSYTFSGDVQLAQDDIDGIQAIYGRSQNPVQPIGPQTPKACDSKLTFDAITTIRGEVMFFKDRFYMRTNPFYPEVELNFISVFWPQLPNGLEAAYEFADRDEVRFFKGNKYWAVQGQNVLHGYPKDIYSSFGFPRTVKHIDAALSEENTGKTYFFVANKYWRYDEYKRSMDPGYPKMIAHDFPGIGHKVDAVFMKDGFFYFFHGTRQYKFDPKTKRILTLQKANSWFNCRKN

[6] = molecular target: Nitric oxide synthase 1 (Rattus norvegicus, UniProt P29476); format: tissue-based, Cerebellum; also: in other assays of this panel Not Active means under 50% inhibition at 10 µM
[7] = molecular target: T4, Nitric oxide synthase, inducible (Mus musculus, UniProt P29477); design: species or system Escherichia coli
T4 sequence (P29477 whole entry): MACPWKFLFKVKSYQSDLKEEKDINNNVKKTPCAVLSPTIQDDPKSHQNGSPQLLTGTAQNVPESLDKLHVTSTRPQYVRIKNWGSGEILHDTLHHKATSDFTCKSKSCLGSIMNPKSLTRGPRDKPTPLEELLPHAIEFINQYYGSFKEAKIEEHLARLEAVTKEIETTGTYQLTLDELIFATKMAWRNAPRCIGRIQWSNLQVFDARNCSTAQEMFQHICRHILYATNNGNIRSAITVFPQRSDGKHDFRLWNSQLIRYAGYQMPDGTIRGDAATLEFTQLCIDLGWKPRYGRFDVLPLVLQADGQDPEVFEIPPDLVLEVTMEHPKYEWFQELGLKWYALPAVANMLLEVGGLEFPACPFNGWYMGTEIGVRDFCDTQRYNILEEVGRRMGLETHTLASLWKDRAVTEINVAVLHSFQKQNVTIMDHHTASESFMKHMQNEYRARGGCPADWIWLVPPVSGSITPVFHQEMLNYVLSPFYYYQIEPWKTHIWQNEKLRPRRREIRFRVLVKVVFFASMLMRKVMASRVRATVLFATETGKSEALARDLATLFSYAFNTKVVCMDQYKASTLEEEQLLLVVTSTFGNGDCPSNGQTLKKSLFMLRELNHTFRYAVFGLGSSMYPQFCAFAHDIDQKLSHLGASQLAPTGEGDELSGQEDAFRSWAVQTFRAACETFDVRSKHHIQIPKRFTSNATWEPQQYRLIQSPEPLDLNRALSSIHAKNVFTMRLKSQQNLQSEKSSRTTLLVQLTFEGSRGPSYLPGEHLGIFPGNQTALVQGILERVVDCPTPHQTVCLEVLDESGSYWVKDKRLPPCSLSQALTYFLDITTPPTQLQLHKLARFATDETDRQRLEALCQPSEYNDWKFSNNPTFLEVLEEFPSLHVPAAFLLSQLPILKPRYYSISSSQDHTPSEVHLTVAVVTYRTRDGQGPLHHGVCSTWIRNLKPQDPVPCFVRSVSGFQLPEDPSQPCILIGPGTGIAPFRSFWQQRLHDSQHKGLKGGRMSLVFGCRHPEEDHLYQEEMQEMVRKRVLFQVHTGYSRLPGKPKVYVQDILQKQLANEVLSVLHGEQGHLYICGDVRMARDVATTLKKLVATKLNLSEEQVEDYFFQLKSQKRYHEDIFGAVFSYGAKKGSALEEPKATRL

[8] = DRUGMATRIX: ATPase, Na+/K+ enzyme inhibition (substrate: ATP); format: tissue-based, Sus scrofa, Heart; conditions: Not Active = under 50% inhibition at 10 µM
[9] = DRUGMATRIX: Tumor Necrosis Factor (TNF), Non-Selective radioligand binding (ligand: [125I] TNF-alpha); format: cell membranes, Membrane; conditions: u-937; Not Active = under 50% inhibition at 10 µM

Chain of Nitric oxide synthase 1 (P29476 whole entry): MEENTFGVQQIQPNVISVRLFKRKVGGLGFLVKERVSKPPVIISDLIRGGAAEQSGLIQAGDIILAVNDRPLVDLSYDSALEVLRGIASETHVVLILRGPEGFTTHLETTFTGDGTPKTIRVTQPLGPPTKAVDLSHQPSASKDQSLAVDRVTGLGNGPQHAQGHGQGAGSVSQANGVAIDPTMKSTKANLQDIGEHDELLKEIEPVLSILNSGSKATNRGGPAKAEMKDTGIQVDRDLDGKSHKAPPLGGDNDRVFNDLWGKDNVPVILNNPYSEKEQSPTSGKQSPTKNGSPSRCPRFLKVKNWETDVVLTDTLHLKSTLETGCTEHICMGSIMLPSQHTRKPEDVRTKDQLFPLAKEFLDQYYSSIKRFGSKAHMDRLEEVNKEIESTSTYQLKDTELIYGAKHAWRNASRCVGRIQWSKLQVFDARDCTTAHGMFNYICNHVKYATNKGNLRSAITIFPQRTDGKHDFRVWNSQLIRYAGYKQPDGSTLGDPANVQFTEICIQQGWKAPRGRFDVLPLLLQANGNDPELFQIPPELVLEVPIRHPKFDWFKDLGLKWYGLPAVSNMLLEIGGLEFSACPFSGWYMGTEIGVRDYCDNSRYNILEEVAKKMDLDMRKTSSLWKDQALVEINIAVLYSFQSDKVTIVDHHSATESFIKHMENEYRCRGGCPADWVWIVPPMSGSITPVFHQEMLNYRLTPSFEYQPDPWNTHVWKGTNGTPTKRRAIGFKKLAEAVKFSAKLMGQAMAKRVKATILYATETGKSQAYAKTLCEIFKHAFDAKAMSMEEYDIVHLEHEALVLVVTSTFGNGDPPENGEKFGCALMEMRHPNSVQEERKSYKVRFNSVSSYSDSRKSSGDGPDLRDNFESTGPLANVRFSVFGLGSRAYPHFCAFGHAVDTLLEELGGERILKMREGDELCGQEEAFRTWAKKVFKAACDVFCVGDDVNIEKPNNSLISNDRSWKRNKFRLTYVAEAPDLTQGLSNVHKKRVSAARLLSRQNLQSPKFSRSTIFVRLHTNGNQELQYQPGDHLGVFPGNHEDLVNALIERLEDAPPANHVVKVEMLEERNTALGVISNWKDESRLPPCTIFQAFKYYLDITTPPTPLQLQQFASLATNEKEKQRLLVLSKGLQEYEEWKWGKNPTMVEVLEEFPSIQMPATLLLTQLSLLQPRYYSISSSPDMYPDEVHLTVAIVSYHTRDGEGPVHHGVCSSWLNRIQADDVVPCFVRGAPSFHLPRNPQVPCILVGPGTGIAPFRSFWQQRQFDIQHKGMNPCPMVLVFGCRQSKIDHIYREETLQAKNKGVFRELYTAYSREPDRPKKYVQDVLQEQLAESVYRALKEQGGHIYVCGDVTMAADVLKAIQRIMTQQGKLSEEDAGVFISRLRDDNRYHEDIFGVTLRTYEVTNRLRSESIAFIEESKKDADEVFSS

Brc1ccccc1 [BROMOBENZENE]
Not Active: IC50 [1] | IC50 [2] | Ki [2] | IC50 [3] | IC50 [4] | Ki [4] | IC50 [5] | IC50 [6] | IC50 [7] | IC50 [8] | Ki [8] | IC50 [9] | Ki [9]

COc1ccc2cc(CC(=O)O)ccc2c1
Not Active: IC50 [1] | IC50 [2] | Ki [2] | IC50 [3] | IC50 [4] | Ki [4] | IC50 [5] | IC50 [6] | IC50 [7] | IC50 [8] | Ki [8] | IC50 [9] | Ki [9]

CC[N+](CC)(CC)CCOc1cccc(OCC[N+](CC)(CC)CC)c1OCC[N+](CC)(CC)CC.[I-].[I-].[I-] [GALLAMINE TRIETHIODIDE]
Not Active: IC50 [1] | IC50 [2] | Ki [2] | IC50 [3] | IC50 [4] | Ki [4] | IC50 [5] | IC50 [6] | IC50 [7] | IC50 [8] | Ki [8] | IC50 [9] | Ki [9]

CCCSc1ccc2nc(NC(=O)OC)[nH]c2c1 [ALBENDAZOLE]
Not Active: IC50 [1] | IC50 [2] | Ki [2] | IC50 [3] | IC50 [4] | Ki [4] | IC50 [5] | IC50 [6] | IC50 [7] | IC50 [8] | Ki [8] | IC50 [9] | Ki [9]

OCc1ccccc1 [BENZYL ALCOHOL]
Not Active: IC50 [1] | IC50 [2] | Ki [2] | IC50 [3] | IC50 [4] | Ki [4] | IC50 [5] | IC50 [6] | IC50 [7] | IC50 [8] | Ki [8] | IC50 [9] | Ki [9]

CC1(C)[C@@H](O[C@H]2O[C@H](C(=O)O)[C@@H](O)[C@H](O)[C@H]2O[C@@H]2O[C@H](C(=O)O)[C@@H](O)[C@H](O)[C@H]2O)CC[C@]2(C)[C@H]3C(=O)C=C4[C@@H]5C[C@@](C)(C(=O)O)CC[C@]5(C)CC[C@@]4(C)[C@]3(C)CC[C@@H]12 [GLYCYRRHIZIN]
Not Active: IC50 [1] | IC50 [2] | Ki [2] | IC50 [3] | IC50 [4] | Ki [4] | IC50 [5] | IC50 [6] | IC50 [7] | IC50 [8] | Ki [8] | IC50 [9] | Ki [9]

O=P1(NCCCl)OCCCN1CCCl (stereo not drawn) [IFOSFAMIDE]
Not Active: IC50 [1] | IC50 [2] | Ki [2] | IC50 [3] | IC50 [4] | Ki [4] | IC50 [5] | IC50 [6] | IC50 [7] | IC50 [8] | Ki [8] | IC50 [9] | Ki [9]

CCc1cccc2c3c([nH]c12)C(CC)(CC(=O)O)OCC3 (stereo not drawn) [ETODOLAC]
Not Active: IC50 [1] | IC50 [2] | Ki [2] | IC50 [3] | IC50 [4] | Ki [4] | IC50 [5] | IC50 [6] | IC50 [7] | IC50 [8] | Ki [8] | IC50 [9] | Ki [9]

COCc1c(C(C)C)nc(C(C)C)c(/C=C/[C@@H](O)C[C@@H](O)CC(=O)O)c1-c1ccc(F)cc1 [CERIVASTATIN]
Not Active: IC50 [1] | IC50 [2] | Ki [2] | IC50 [3] | IC50 [4] | Ki [4] | IC50 [5] | IC50 [6] | IC50 [7] | IC50 [8] | Ki [8] | IC50 [9] | Ki [9]

CC1(C)S[C@@H]2[C@H](NC(=O)[C@H](N)c3ccc(O)cc3)C(=O)N2[C@H]1C(=O)O [AMOXICILLIN]
Not Active: IC50 [1] | IC50 [2] | Ki [2] | IC50 [3] | IC50 [4] | Ki [4] | IC50 [5] | IC50 [6] | IC50 [7] | IC50 [8] | Ki [8] | IC50 [9] | Ki [9]

COc1ccc([C@@H]2Sc3ccccc3N(CCN(C)C)C(=O)[C@@H]2OC(C)=O)cc1 [DILTIAZEM]
Not Active: IC50 [1] | IC50 [2] | Ki [2] | IC50 [3] | IC50 [4] | Ki [4] | IC50 [5] | IC50 [6] | IC50 [7] | IC50 [8] | Ki [8] | IC50 [9] | Ki [9]
